# Several values for one entry are separate records, joined by “and”; a condition that tells them apart may be missing. Equal values may be shown once. Read-outs that look alike come from different tables or passages of the source.
# Legend:
# [1] = design: method as in PMID 17644690; conditions: laboratory rats; cited from earlier work
# [2] = design: method as in earlier work; conditions: house sparrows; cited from earlier work
# [3] = Fractional absorption of orally administered probes by yellow-vented bulbul (plasma AUC); assay type: in vivo, Pycnonotus xanthopygos; conditions: oral; for Tmax: Pycnonotus xanthopygos, plasma, read-out: Time of peak plasma level post oral administration (converted); for Fractional absorption (f): AUCoral/AUCinj, mean ± SEM
# Description: (§1) As a measure of passive, paracellular absorption, we used standard methods from pharmacokinetics to measure the whole-organism fractional absorption of water-soluble compounds. As described in more detail, below, metabolically inert probe molecules were injected and also administered orally with a gavage needle to intact animals in separate experiments, and blood and/or urine samples were serially collected and analyzed for the probe molecules by liquid scintillation. Fractional absorption (f) was calculated as [post oral administration AUC]/[ post injection AUC] where AUC = dose-corrected area under the curve of plasma or urine probe amount vs. time. […] In mammals, the probes can be recovered in urine, and estimates of oral absorption take account of possible differential recovery by incorporating data on probes when injected. As shown in Results, recoveries of carbohydrate probes were uniformly high, which is in agreement with measures by others in rats and humans. In birds, plasma is sampled rather than urine, because urine is mixed in the avian cloaca with undigested residue from the intestine. […] In Discussion we elaborate on comparisons between these two procedures and reasons to choose them.
# (§2) Also, the rodents were transferred to metabolic cages with wire bottoms and a tray beneath from which to collect clean urine samples. At the beginning of a trial, animals were orally dosed at 1.0% body mass with an isosmotic solution containing L-[^14C]arabinose (∼0.02 µCi/g animal) and either [^3H]3OMD-glucose (∼0.1 µCi/g animal) or [^3H]lactulose (∼0.5 µCi/g animal). Oral dose solutions also contained NaCl (∼90 mM, ∼180 mOsm) and D-glucose (∼90 mM, ∼90 mOsm). NaCl was included in the solution to balance osmolality. Inclusion of Na^+ also provides an essential ion for Na^+-coupled D-glucose absorption, although it is not strictly necessary in this kind of whole-animal study because animals would still absorb nearly all glucose even if the diet is low in Na^+ because additional Na^+ is secreted into the intestinal lumen together with bicarbonate and diffuses from blood. In a separate experimental trial, each animal was injected (0.6% body mass) with isosmotic NaCl solution containing L-[^14C]arabinose (∼0.02 µCi/g animal) and either [^3H]3OMD-glucose (∼0.1 µCi/g animal) or [^3H]lactulose (∼0.1 µCi/g animal). The injection site was the pectoralis muscle in birds and the peritoneal cavity in rodents. Syringes were weighed before and after dosing animals to determine actual dose administered.
# (§3) After administration of radiolabeled probes, birds and rodents were returned to their cages, where birds had ad libitum access to fruit and the rodents had ad libitum access to sucrose solution (10% w/w). The purpose was to provide rodents water and some calories and also make them urinate more. Serial blood samples (∼25 µL) were drawn from the brachial vein of birds as described previously at t = 0 (background), 10, 20, 30, 45, 60, 80 or 90, 120, 150 min post-injection or post-oral administration. Plasma was separated using a standard hematocrit centrifuge, placed in scintillation vials and weighed. […] Scintillation cocktail (Quicksafe A, Zinsser, UK) was added and samples were counted for disintegrations per minute (dpm) by liquid scintillation (Packard Tri-Carb 1600 TR scintillation counter, Packard INC., Meriden CT, USA), with corrections for quench and appearance of ^14C counts in the ^3H channel. […]
# [4] = Recovery of injected probes in urine, both rodent species pooled; assay type: in vivo; conditions: Acomys cahirinus and Acomys russatus (pooled), intraperitoneal, data for both rodent species pooled, post-injection, read-out: Recovery of injected probe in urine, 95% C.I.
# Description: as §1
# Also, the rodents were transferred to metabolic cages with wire bottoms and a tray beneath from which to collect clean urine samples. At the beginning of a trial, animals were orally dosed at 1.0% body mass with an isosmotic solution containing L-[^14C]arabinose (∼0.02 µCi/g animal) and either [^3H]3OMD-glucose (∼0.1 µCi/g animal) or [^3H]lactulose (∼0.5 µCi/g animal). […]
# (§4) After administration of radiolabeled probes, birds and rodents were returned to their cages, where birds had ad libitum access to fruit and the rodents had ad libitum access to sucrose solution (10% w/w). […] Scintillation cocktail (Quicksafe A, Zinsser, UK) was added and samples were counted for disintegrations per minute (dpm) by liquid scintillation (Packard Tri-Carb 1600 TR scintillation counter, Packard INC., Meriden CT, USA), with corrections for quench and appearance of ^14C counts in the ^3H channel. […]
# [5] = Fractional absorption of orally administered probes, both bird species pooled; assay type: in vivo, Onychognathus tristramii and Pycnonotus xanthopygos; conditions: for Fractional absorption (f): oral, both bird species pooled, mean ± SEM
# Description: as §1
# as §2, with “In a separate experimental trial, each animal was injected (0.6% body mass) with isosmotic NaCl solution containing L-[^14C]arabinose (∼0.02 µCi/g animal) and either [^3H]3OMD-glucose (∼0.1 µCi/g animal) or [^3H]lactulose (∼0.1 µCi/g animal). The injection site was the pectoralis muscle in birds and the peritoneal cavity in rodents. Syringes were weighed before and after dosing animals to determine actual dose administered.” left out
# as §4
# [6] = Mono-exponential fit of plasma probe concentrations after injection, yellow-vented bulbul; assay type: in vivo, Pycnonotus xanthopygos; conditions: dose-corrected plasma concentration, mean ± SEM
# Description: as §2, with “In a separate experimental trial, each animal was injected (0.6% body mass) with isosmotic NaCl solution containing L-[^14C]arabinose (∼0.02 µCi/g animal) and either [^3H]3OMD-glucose (∼0.1 µCi/g animal) or [^3H]lactulose (∼0.1 µCi/g animal). The injection site was the pectoralis muscle in birds and the peritoneal cavity in rodents. Syringes were weighed before and after dosing animals to determine actual dose administered.” left out
# as §4
# [7] = Fractional absorption of orally administered probes by Tristram's grackle (plasma AUC); assay type: in vivo, Onychognathus tristramii; conditions: oral; for Tmax: Onychognathus tristramii, plasma, read-out: Time of peak plasma level post oral administration; for Fractional absorption (f): AUCoral/AUCinj, mean ± SEM
# Description: as §1, §2, §3
# [8] = Mono-exponential fit of plasma probe concentrations after injection, Tristram's grackle; assay type: in vivo, Onychognathus tristramii; conditions: dose-corrected plasma concentration, mean ± SEM
# Description: as §2, with “In a separate experimental trial, each animal was injected (0.6% body mass) with isosmotic NaCl solution containing L-[^14C]arabinose (∼0.02 µCi/g animal) and either [^3H]3OMD-glucose (∼0.1 µCi/g animal) or [^3H]lactulose (∼0.1 µCi/g animal). The injection site was the pectoralis muscle in birds and the peritoneal cavity in rodents. Syringes were weighed before and after dosing animals to determine actual dose administered.” left out
# as §4
# [9] = design: method as in PMID 17644690; conditions: rock doves; cited from earlier work
# [10] = design: method as in PMID 2167807; conditions: humans, corrected for incomplete urine recovery; cited from earlier work
# [11] = Fractional absorption of orally administered probes by rodents (urine recovery); assay type: in vivo, Acomys cahirinus and Acomys russatus; conditions: for Fractional absorption (f): oral, both rodent species pooled, corrected for post-injection recovery, mean ± SEM
# Description: as §1, §2, §3
# [12] = in vivo; cited from earlier work
# [13] = tested on: whole-animal glucose absorption; design: method as in PMID 20145981; conditions: American robins; cited from earlier work
# [14] = tested on: whole-animal glucose absorption; design: method as in PMID 20145981; conditions: laboratory rats, cited from earlier work
# [15] = Recovery of injected probes in urine of common spiny mice; assay type: in vivo; conditions: Acomys cahirinus (common spiny mouse), ip; A. cahirinus, intraperitoneal injection, cumulative urine recovery, mean ± SEM; read-out: Recovery of injected probe in urine
# Description: (§5) As a measure of passive, paracellular absorption, we used standard methods from pharmacokinetics to measure the whole-organism fractional absorption of water-soluble compounds. As described in more detail, below, metabolically inert probe molecules were injected and also administered orally with a gavage needle to intact animals in separate experiments, and blood and/or urine samples were serially collected and analyzed for the probe molecules by liquid scintillation. Fractional absorption (f) was calculated as [post oral administration AUC]/[ post injection AUC] where AUC = dose-corrected area under the curve of plasma or urine probe amount vs. time. […] In mammals, the probes can be recovered in urine, and estimates of oral absorption take account of possible differential recovery by incorporating data on probes when injected. […]
# as §4
# [16] = Recovery of injected probes in urine of golden spiny mice; assay type: in vivo; conditions: Acomys russatus (golden spiny mouse), ip; A. russatus, intraperitoneal injection, cumulative urine recovery, mean ± SEM; read-out: Recovery of injected probe in urine
# Description: as §5, §4
# [17] = design: method as in PMID 18025481; conditions: rats, cited from earlier work
# [18] = rock doves, area under the curve calculations; ref F. D. Cid, E. Caviedes-Vidal and W.H. Karasov, unpubl. observations; cited from earlier work
# [19] = rock doves, nicotine in cationic water-soluble form, predicted from MW size-dependence of paracellular absorption
# Description: These factors of molecule size, charge, and associated nutrients help define the conditions under which water-soluble SMs may be best absorbed.
structure (smiles),measurement,setting,value
OC1OC[C@H](O)[C@H](O)[C@H]1O (mixture of isomers) [L-arabinose],Fractional absorption (f),[1],0.34
same,Fractional absorption (f),[2],0.61
same,Tmax,[3],≤ 10 min
same,Fractional absorption (f),[3],1.10±0.15
same,dose excreted,[4],81 to 93%
same,Fractional absorption (f),[5],1.03±0.17 and 1.03±0.07
same,"A, mono-exponential fit Ct = A e^−αt",[6],73.1±4.2 mg^−1 plasma
same,Tmax,[7],≤ 10 min
same,Fractional absorption (f),[7],0.98±0.07
same,"A, mono-exponential fit Ct = A e^−αt",[8],25.1±3.1 mg^−1 plasma
same,Fractional absorption (f),[9],0.61
same,Fractional absorption (f),[10],0.26
same,Fractional absorption (f),[11],0.37
same,Fractional absorption (f),[11]; listed as arabinose,0.37±0.06
O=C[C@@H](O)[C@H](O)[C@@H](O)[C@@H](O)CO [L-glucose],Share of glucose absorption accounted for by L-glucose (passive),[12],50 to >90
O=C(CCc1ccc(O)cc1)c1c(O)cc(O)cc1O[C@@H]1O[C@H](CO)[C@@H](O)[C@H](O)[C@H]1O [phloridzin],Effect on glucose absorption,[13],did not significantly decrease glucose absorption
same,Inhibition of whole-animal glucose absorption efficiency,[14]; 10 mM,> 36%
CO[C@@H]([C@H](O)[C@H](O)CO)[C@@H](O)C=O [3-O-methyl-D-glucose],dose excreted,[15],100 ± 1%
same,Tmax,[3],30 min
same,Fractional absorption (f),[3],0.80±0.19
same,dose excreted,[4],96 to 101%
same,Ratio f L-arabinose/f 3OMD-glucose (proportion of 3OMD-glucose absorption that is passive),"[5]; birds, corrected for difference in MW",1
same,Fractional absorption (f),[5],0.88±0.08
same,"A, mono-exponential fit Ct = A e^−αt",[6],81.1±10.4 mg^−1 plasma
same,dose excreted,[16],93 ± 3%
same,Tmax,[7],40 to 50 min
same,Fractional absorption (f),[7],0.95±0.08
same,"A, mono-exponential fit Ct = A e^−αt",[8],22.6±3.0 mg^−1 plasma
same,Fractional absorption (f),[11],0.95±0.01
same,Ratio f L-arabinose/f 3OMD-glucose (proportion of 3OMD-glucose absorption that is passive),"[11]; rodents, corrected for difference in MW",0.34
O=c1c(OC2OC(CO)C(O)C(O)C2O)c(-c2ccc(O)c(O)c2)oc2cc(O)cc(O)c12 (centres unmarked) [isoquercetrin],Effect on glucose absorption,[13],not in robins
same,Effect on glucose absorption,[14],significantly decreased glucose absorption
C[C@H](O)[C@H](O)[C@@H](O)[C@@H](O)C=O [L-rhamnose],Fractional absorption,[17]; estimate from serially sampling blood,0.24±0.03
same,Fractional absorption,[17]; measured by urine recovery,0.22±0.03
CN1CCC[C@H]1c1cccnc1 [nicotine],Absorption of a dose,[18],44±3%
same,Predicted absorption of a dose,[19],around 40%
OC[C@H]1O[C@@H](O[C@@H]2[C@@H](CO)OC(O)(CO)[C@H]2O)[C@H](O)[C@@H](O)[C@H]1O (mixture of isomers) [lactulose],Fractional absorption (f),[3],0.30±0.10
same,dose excreted,[4],90 to 97%
same,Fractional absorption (f),[5],0.17±0.06
same,Fractional absorption (f),[7],0.069±0.011
same,Fractional absorption (f),[11],0.085±0.021
